Measurements: US20200031811A1, “SUBSTITUTED MONO- AND POLYAZANAPHTHALENE DERIVATIVES AND THEIR USE” (Basilea Pharmaceutica International AG, priority 2015, published 2020)

What was measured:
MNK1 = molecular target: T1, MNK1 (Homo sapiens, UniProt Q9BUB5); assay: MNK inhibition assay (Z-Lyte kinase assay, Ser/Thr 7 peptide); type: biochemical; conditions: for IC50: recombinant GST-MNK1, 3 hours at 31° C.
T1 construct: purchased Life Technologies or Carna Biosciences PV6023 or 02-145; host or cells: baculovirus infected insect cells
Source text: For the measurement of the activity of the MNK1 kinase the Z-Lyte kinase assay system was used. The kinase activity of MNK1 can be quantified with the Z-Lyte kinase assay kit Ser/Thr 7 peptide (Life Technologies PV3180). The kit was utilized according to the instructions of the provider. A recombinant GST-MNK1 fusion protein produced in and purified from baculovirus infected insect cells was used as enzyme source (GST-MNK1 Life Technologies PV6023 or Carna Biosciences 02-145). It was verified that both sources of the MNK1 enzyme gave similar IC50 values with several compounds. The MNK1 enzyme assay was performed in 384 well round bottom black microtiter plates (Corning 3676). The kinase reaction was performed for 3 hours at 31° C. As instructed by the provider of the kit the amount of enzyme was chosen such that ˜30% of the substrate peptide was phosphorylated in control wells containing buffer only. The MNK1 inhibiting activity of compounds was tested by adding the compounds to the kinase reaction at a concentration of 10000, 5000, 2000, 1000, 500, 200, 100, 50 nM. Compounds with strong MNK1 inhibition were tested at 20, 10, 5, 2, 1 and 0.5 nM in addition. Each compound concentration was tested at least in duplicate. The % phosphorylation of the substrate peptide at each compound concentration was calculated as described in the assay manual. The fluorescent signals were recordes on Biotek Cytation 3 microplate reader. The IC50, the concentration that reduced substrate phosphorylation by 50% if compared to buffer only wells, was calculated with the Grafit 6 software (Erythacus software).

[1] = system: human pancreatic cancer cell line MiaPaCa2 (ATCC CRL-1420); assay: Cell growth assay (CellTiterGlo, 72 hours); type: cell-based; conditions: for IC50: MIA PaCa-2, MiaPaCa2 cells, 72 hours, read-out: IC50 MiaPaCa; for inhibition at 100 µM: MIA PaCa-2, at 100 μM, read-out: Inhibition of MiaPaCa growth at indicated concentration
Procedure: The inhibition of cell growth by the compounds was tested by exposing the human pancreatic cancer cell line MiaPaCa2 (ATCC CRL-1420) to the compounds. The assay was performed in 384 well clear bottom white microtiter plates (Greiner #781098). Each well was seeded with 10^3 cells in 20 μl of Dulbecco's modified Eagle's medium (Sigma D6796) supplied with 10% fetal calf scrum (Sigma F7524), 2.5% horse serum (Sigma H0146), 1% Penicillin-Streptomycin (Sigma P0781), 1% MEM nonessential amino acid solution 100× (Sigma M71459) and 1% 200 mM L-Glutamine (Sigma G7513) culture medium. After overnight incubation at 37° C. in 5% CO2 the compounds were added in the following concentrations: 100, 50, 20, 10, 5, 2, 1, 0.5, 0.2 and 0.1 μM. Each compound concentration was tested in quadruplicate. The incubation was then continued for 72 hours. After 72 hours the growth of the cells was assessed by the addition of the CellTiterGlo reagent (Promega G9242) as instructed by the provider. The luminescent signal was recorded on a SpectraMax M2 microplate reader. The signal obtained in wells containing cells cultivated in the absence of compound was set to 100% growth after subtracting the signal obtained in medium only wells. The % growth in each well was calculated by subtracting the medium only value and dividing through the 100% growth value. The IC50 for cell growth, the concentration of compound at which cell growth was reduced to 50%, was calculated with the GraFit6 software (Erythacus software).

[2] = read-out: Inhibition of MNK1 activity at indicated concentration

T1 sequence (Q9BUB5 whole entry): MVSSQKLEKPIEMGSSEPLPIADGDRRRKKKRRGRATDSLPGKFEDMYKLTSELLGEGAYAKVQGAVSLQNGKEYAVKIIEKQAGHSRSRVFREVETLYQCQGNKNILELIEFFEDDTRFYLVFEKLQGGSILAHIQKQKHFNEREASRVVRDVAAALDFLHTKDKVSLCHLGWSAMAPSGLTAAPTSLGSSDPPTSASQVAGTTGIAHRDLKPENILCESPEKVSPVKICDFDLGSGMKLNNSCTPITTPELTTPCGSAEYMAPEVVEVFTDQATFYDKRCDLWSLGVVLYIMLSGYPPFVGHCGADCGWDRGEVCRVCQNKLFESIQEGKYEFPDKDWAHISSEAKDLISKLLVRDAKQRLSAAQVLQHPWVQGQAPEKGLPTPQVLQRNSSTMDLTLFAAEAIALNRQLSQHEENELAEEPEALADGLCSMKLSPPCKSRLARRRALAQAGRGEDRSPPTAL

| Compound | IC50 (MNK1) [µM] | IC50 [1] [µM] | inhibition at 1 µM (MNK1; [2]) [%] | inhibition at 10 µM (MNK1; at 10 μM, read-out: Inhibition of MNK1 activity at indicated concentration) [%] | inhibition at 100 µM [1] [%] |
| --- | --- | --- | --- | --- | --- |
| Cn1nccc1OCc1ccc2cncc(-c3cc4ccccc4o3)c2c1 [Example 97, 4-(Benzofuran-2-yl)-6-[(2-methylpyrazol-3-yl)oxymethyl]isoquinoline] | 0.397 | 10.8 |  |  |  |
| Cn1nccc1Nc1ccc2cncc(-c3cc4ccccc4o3)c2c1 [Example 98, 4-(Benzofuran-2-yl)-N-(2-methylpyrazol-3-yl)isoquinolin-6-amine] |  | 9.88 | 40 |  |  |
| CN(C)CCNc1ccc2cncc(-c3cc4ccccc4o3)c2c1 [Example 99, N-[4-(Benzofuran-2-yl)-6-isoquinolyl]-N′,N′-dimethyl-ethane-1,2-diamine] |  | 4.39 | 60 |  |  |
| NCCNc1ccc2cncc(-c3cc4ccccc4o3)c2c1 [Example 100, N′-[4-(Benzofuran-2-yl)-6-isoquinolyl]ethane-1,2-diamine] |  | 4.01 |  | 51 |  |
| Cn1nccc1NCc1ccc2cncc(-c3cc4ccccc4o3)c2c1 [Example 101] | 0.18 | 18.9 |  |  |  |
| NCCOc1ccc2cncc(-c3cc4ccccc4o3)c2c1 [Example 102, 2-[[4-(Benzofuran-2-yl)-6-isoquinolyl]oxy]ethanamine] | 1.05 | 7 |  |  |  |
| NCCCNC(=O)c1ccc2cncc(-c3cc4ccccc4o3)c2n1 [Example 103, N-(3-aminopropyl)-8-(benzofuran-2-yl)-1,6-naphthyridine-2-carboxamide] | 0.088 | 4.12 |  |  |  |
| NCCCOCc1ccc2cncc(-c3cc4ccccc4o3)c2c1 [Example 105, 3-[[4-(Benzofuran-2-yl)-6-isoquinolyl]methoxy]propan-1-amine] | 0.089 | 12.8 |  |  |  |
| NCCCOCc1ccc2cncc(-c3ccc(Cl)cc3)c2c1 [Example 106] |  | 20.7 | 34 |  |  |
| NCCCOCc1ccc2cncc(-c3ccc(Cl)c(Cl)c3)c2c1 [Example 107] | 1.12 | 21 |  |  |  |
| NCCCOCc1ccc2cncc(-c3ccc(NC(=O)Nc4ccccc4)cc3)c2c1 [Example 108, 1-[4-[6-(3-Aminopropoxymethyl)-4-isoquinolyl]phenyl]-3-phenyl-urea] | 3.51 | 15 |  |  |  |
| NCCCOCc1ccc2c(N)ncc(-c3cc4ccccc4o3)c2c1 [Example 109, 6-(3-Aminopropoxymethyl)-4-(benzofuran-2-yl)isoquinolin-1-amine] | 0.687 | 8.54 |  |  |  |
| NCCCOCc1ccc2c(N)ncc(-c3ccc(Cl)cc3)c2c1 [Example 110] | 0.395 | 11.3 |  |  |  |
| NCCCOCc1ccc2c(N)ncc(-c3ccc(Cl)c(Cl)c3)c2c1 [Example 111] | 1.15 | 8.32 |  |  |  |
| NCCCOCc1ccc2c(N)ncc(-c3ccc(NC(=O)Nc4ccccc4)cc3)c2c1 [Example 112, 1-[4-[1-Amino-6-(3-aminopropoxymethyl)-4-isoquinolyl]phenyl]-3-phenyl-urea] |  | 43.8 | 19 |  |  |
| NC1CCN(Cc2ccc3cncc(-c4ccc(NC(=O)Nc5ccc(Cl)cc5)cc4)c3c2)CC1 [Example 113, 1-[4-[6-[(4-Amino-1-piperidyl)methyl]-4-isoquinolyl]phenyl]-3-(4-chlorophenyl)urea] | 3.15 | 9.21 |  |  |  |
| NC1CCN(Cc2ccc3cncc(-c4ccc(NC(=O)Nc5cccc(Cl)c5)cc4)c3c2)CC1 [Example 114] | 1.21 | 3.83 |  |  |  |
| NC1CCN(Cc2ccc3cncc(-c4ccc(NC(=O)Nc5ccncc5)cc4)c3c2)CC1 [Example 115] | 0.49 |  |  |  | 52 |
| CC(C)(C)c1cc(NC(=O)Nc2ccc(-c3cncc4ccc(CN5CCC(N)CC5)cc34)cc2)no1 [Example 116] | 0.887 | 3.07 |  |  |  |
| NC1CCN(Cc2ccc3cncc(-c4ccc(NC(=O)Nc5cccnc5)cc4)c3c2)CC1 [Example 117] | 0.603 |  |  |  | 34 |
| NC1CCN(Cc2ccc3cncc(-c4ccc(NC(=O)NC5CC5)cc4)c3c2)CC1 [Example 118] | 0.422 |  |  |  | 48 |

| Compound | IC50 (MNK1) [µM] | IC50 [1] [µM] | inhibition at 1 µM (MNK1; [2]) [%] | inhibition at 10 µM (MNK1; at 10 μM, read-out: Inhibition of MNK1 activity at indicated concentration) [%] | inhibition at 100 µM [1] [%] |
| --- | --- | --- | --- | --- | --- |
| NC1CCN(Cc2ccc3cncc(-c4ccc(NC(=O)Nc5ccccn5)cc4)c3c2)CC1 [Example 119] | 0.388 | 2.56 |  |  |  |
| Cc1cc(NC(=O)Nc2ccc(-c3cncc4ccc(CN5CCC(N)CC5)cc34)cc2)on1 [Example 120, 1-[4-[6-[(4-Amino-1-piperidyl)methyl]-4-isoquinolyl]phenyl]-3-(3-methylisoxazol-5-yl)urea] | 0.683 | 18.7 |  |  |  |
| Nc1cc[n+](Cc2ccc3cncc(-c4ccccc4)c3c2)cc1 [Example 121, 1-[(4-Phenyl-6-isoquinolyl)methyl]pyridin-1-ium-4-amine] | 0.165 | 21.8 |  |  |  |
| Nc1cc[n+](Cc2ccc3cncc(-c4ccc(O)cc4)c3c2)cc1 [Example 122] | 0.028 |  |  |  | 37 |
| Nc1cc[n+](Cc2ccc3cncc(-c4ccc(Cl)cc4)c3c2)cc1 [Example 123] | 0.132 | 7.92 |  |  |  |
| Nc1cc[n+](Cc2ccc3cncc(-c4ccc(NC(=O)Nc5ccccc5)cc4)c3c2)cc1 [Example 124] | 2.08 | 45.8 |  |  |  |
| Cc1cc(N)cc[n+]1Cc1ccc2cncc(-c3cc4ccccc4o3)c2c1 [Example 125, 1-[[4-(Benzofuran-2-yl)-6-isoquinolyl]methyl]-2-methyl-pyridin-1-ium-4-amine] | 0.052 | 4.04 |  |  |  |
| Cc1cc(NCc2ccc3cncc(-c4cc5ccccc5o4)c3c2)cc(C)n1 [Example 126] | 0.363 | 5.5 |  |  |  |
| Nc1cc[n+](Cc2ccc3cncc(-c4cc5ccccc5o4)c3c2)nc1 [Example 127] | 0.021 | 8.48 |  |  |  |
| c1ccc2oc(-c3cncc4ccc(CNc5ccncn5)cc34)cc2c1 [Example 128] | 0.084 | 15.8 |  |  |  |
| Nc1ccc(NCc2ccc3cncc(-c4cc5ccccc5o4)c3c2)cn1 [Example 129] | 0.143 | 23.1 |  |  |  |
| Nc1cc(NCc2ccc3cncc(-c4cc5ccccc5o4)c3c2)ccn1 [Example 130, N4-[[4-(Benzofuran-2-yl)-6-isoquinolyl]methyl]pyridine-2,4-diamine] | 0.021 | 0.58 |  |  |  |
| Nc1ccc(Nc2ccc3cncc(-c4cc5ccccc5o4)c3c2)cc1 [Example 132, N1-[4-(Benzofuran-2-yl)-6-isoquinolyl]benzene-1,4-diamine] | 3.12 |  |  |  | 53 |
| NCc1ccc(Nc2ccc3cncc(-c4cc5ccccc5o4)c3c2)cc1 [Example 133] | 0.152 | 11.5 |  |  |  |
| c1cncc(Nc2ccc3cncc(-c4cc5ccccc5o4)c3c2)c1 [Example 134] | 4.68 |  |  |  | 45 |
| Nc1cccc(Nc2ccc3cncc(-c4cc5ccccc5o4)c3c2)c1 [Example 135] | 4.68 | 10.9 |  |  |  |
| NCc1cccc(Nc2ccc3cncc(-c4cc5ccccc5o4)c3c2)c1 [Example 136] | 0.558 | 20.6 |  |  |  |
| Nc1cc(Nc2ccc3cncc(-c4cc5ccccc5o4)c3c2)ccn1 [Example 137, N4-[4-(Benzofuran-2-yl)-6-isoquinolyl]pyridine-2,4-diamine] | 1.09 | 3.25 |  |  |  |
| Nc1ccc(Nc2ccc3cncc(-c4cc5ccccc5o4)c3c2)cn1 [Example 138, N5-[4-(Benzofuran-2-yl)-6-isoquinolyl]pyridine-2,5-diamine] | 1.6 | 12.1 |  |  |  |
| c1ccc2oc(-c3cncc4ccc(Nc5ccncc5)cc34)cc2c1 [Example 139, 4-(Benzofuran-2-yl)-N-(4-pyridyl)isoquinolin-6-amine] | 0.903 | 10.4 |  |  |  |
